Measured values published in patent US20250090695A1, “IMMUNOSTIMULANT-CYTOTOXIC CONJUGATE COMPOSITION AND METHODS FOR CANCER TREATMENT” (The Research Foundation for the State University of New York, priority 2022, published 2025).

Experiments:
[1] = Biodistribution in a xenograft model of prostate cancer with PC-3 PiP (PSMA(+)) and PC-3 flu (PSMA(−)) tumors; type: in vivo, Male NCr nude mice; conditions: PC-3 PiP/PC-3 flu xenograft, NCr nude mice
Procedure: Biodistribution analyses of ^177Lu-RIMS-1 and ^177Lu-PSMA-617 were carried out in a xenograft model of prostate cancer with a PC-3 PiP tumor (PSMA(+)) on the left shoulder of a murine subject, and a PC-3 flu tumor (PSMA(−)) on the right should of a murine subject. Murine subjects examined were Male NCr nude mice.

[2] = OLINDA dosimetry to adult male from mouse biodistribution

## O=C([O-])CN1CCN(CC(=O)[O-])CCN(CC(=O)NCC2CCC(C(=O)N[C@@H](Cc3ccc4ccccc4c3)C(=O)NCCCC[C@H](NC(=O)N[C@@H](CCC(=O)O)C(=O)O)C(=O)O)CC2)CCN(CC(=O)[O-])CC1.[177Lu+3] (stereo partly shown) [^177Lu-PSMA-617]
[1]; 2 h
  Biodistribution Kidney (% ID/g ± SD): 5.12 ± 1.95 % ID/g
  Biodistribution Liver (% ID/g ± SD): 0.29 ± 0.14 % ID/g
  Biodistribution Muscle (% ID/g ± SD): 0.14 ± 0.05 % ID/g
  Biodistribution PSMA (+) (PC3-PIP) tumor (% ID/g ± SD): 11.78 ± 1.46 % ID/g
  Biodistribution PSMA (−) (PC3-Flu) tumor (% ID/g ± SD): 0.48 ± 0.2 % ID/g
  Biodistribution Sm Int (% ID/g ± SD): 0.28 ± 0.15 % ID/g
  Biodistribution Spleen (% ID/g ± SD): .027 ± 0.14 % ID/g
[1]; 24 h
  Biodistribution Blood (% ID/g ± SD): 0.21 ± 0.13 % ID/g
  Biodistribution Bone (% ID/g ± SD): 0.07 ± 0.010 % ID/g
  Biodistribution Heart (% ID/g ± SD): 0.09 ± 0.05 % ID/g
  Biodistribution Kidney (% ID/g ± SD): 0.57 ± 0.29 % ID/g
  Biodistribution Liver (% ID/g ± SD): 0.08 ± 0.040 % ID/g
  Biodistribution Muscle (% ID/g ± SD): 0.04 ± 0.010 % ID/g
  Biodistribution PSMA (+) (PC3-PIP) tumor (% ID/g ± SD): 8.24 ± 3.22 % ID/g
  Biodistribution PSMA (−) (PC3-Flu) tumor (% ID/g ± SD): 0.18 ± 0.13 % ID/g
  Biodistribution Sm Int (% ID/g ± SD): 0.06 ± 0.020 % ID/g
  Biodistribution Spleen (% ID/g ± SD): 0.08 ± 0.040 % ID/g
[1]; 72 h
  Biodistribution Blood (% ID/g ± SD): 0.03 ± 0.01 % ID/g
  Biodistribution Bone (% ID/g ± SD): 0.05 ± 0.01 % ID/g
  Biodistribution Heart (% ID/g ± SD): 0.03 ± 0.01 % ID/g
  Biodistribution Kidney (% ID/g ± SD): 0.08 ± 0.05 % ID/g
  Biodistribution Liver (% ID/g ± SD): 0.03 ± 0.01 % ID/g
  Biodistribution Muscle (% ID/g ± SD): 0.02 ± 0.01 % ID/g
  Biodistribution PSMA (+) (PC3-PIP) tumor (% ID/g ± SD): 3.65 ± 0.59 % ID/g
  Biodistribution PSMA (−) (PC3-Flu) tumor (% ID/g ± SD): 0.02 ± 0.01 % ID/g
  Biodistribution Sm Int (% ID/g ± SD): 0.03 ± 0.01 % ID/g
  Biodistribution Spleen (% ID/g ± SD): 0.04 ± 0.01 % ID/g
[2]; Target Organ Adrenals
  OLINDA dosimetry to Adult Male, Adrenals: 1.32 μSv/MBq
[2]; Target Organ Brain
  OLINDA dosimetry to Adult Male, Brain: 0.00 μSv/MBq
[2]; Target Organ Esophagus
  OLINDA dosimetry to Adult Male, Esophagus: 0.25 μSv/MBq
[2]; Target Organ Eyes
  OLINDA dosimetry to Adult Male, Eyes: 0.00 μSv/MBq
[2]; Target Organ Gallbladder Wall
  OLINDA dosimetry to Adult Male, Gallbladder Wall: 0.93 μSv/MBq
[2]; Target Organ Heart Wall
  OLINDA dosimetry to Adult Male, Heart Wall: 1.57 μSv/MBq
[2]; Target Organ Kidneys
  OLINDA dosimetry to Adult Male, Kidneys: 54.70 μSv/MBq
[2]; Target Organ Left Colon
  OLINDA dosimetry to Adult Male, Left Colon: 0.18 μSv/MBq
[2]; Target Organ Liver
  OLINDA dosimetry to Adult Male, Liver: 27.80 μSv/MBq
[2]; Target Organ Lungs
  OLINDA dosimetry to Adult Male, Lungs: 2.43 μSv/MBq
[2]; Target Organ Osteogenic Cells
  OLINDA dosimetry to Adult Male, Osteogenic Cells: 0.83 μSv/MBq
[2]; Target Organ Pancreas
  OLINDA dosimetry to Adult Male, Pancreas: 0.32 μSv/MBq
[2]; Target Organ Prostate
  OLINDA dosimetry to Adult Male, Prostate: 0.10 μSv/MBq
[2]; Target Organ Rectum
  OLINDA dosimetry to Adult Male, Rectum: 0.07 μSv/MBq
[2]; Target Organ Red Marrow
  OLINDA dosimetry to Adult Male, Red Marrow: 0.10 μSv/MBq
[2]; Target Organ Right Colon
  OLINDA dosimetry to Adult Male, Right Colon: 0.27 μSv/MBq
[2]; Target Organ Salivary Glands
  OLINDA dosimetry to Adult Male, Salivary Glands: 0.01 μSv/MBq
[2]; Target Organ Small Intestine
  OLINDA dosimetry to Adult Male, Small Intestine: 1.54 μSv/MBq
[2]; Target Organ Spleen
  OLINDA dosimetry to Adult Male, Spleen: 0.25 μSv/MBq
[2]; Target Organ Stomach Wall
  OLINDA dosimetry to Adult Male, Stomach Wall: 0.23 μSv/MBq
[2]; Target Organ Thymus
  OLINDA dosimetry to Adult Male, Thymus: 0.11 μSv/MBq
[2]; Target Organ Thyroid
  OLINDA dosimetry to Adult Male, Thyroid: 0.05 μSv/MBq
[2]; Target Organ Total Body
  OLINDA dosimetry to Adult Male, Today Body: 1.13 μSv/MBq
[2]; Target Organ Tumor
  OLINDA dosimetry to Adult Male, Tumor: 145.00 μSv/MBq
[2]; Target Organ Urinary Bladder Wall
  OLINDA dosimetry to Adult Male, Urinary Bladder Wall: 7.66 μSv/MBq
